Laboratory results reported in US8697722B2 (SRI International, priority 2007, dated 2014).
Where two headings read alike, the source gives them in different places.

Legend:
[1] = target: T1, rat α3β4 receptors (Rattus norvegicus, UniProt P04757+P12392); test: [3H]epibatidine competition binding on membranes of HEK cells transfected with rat α3β4 receptors
T1 construct: expressed in transfected cells; host or cells: HEK cells (KXα3β4R2)

[2] = target: T2, rat α4β2 receptors (Rattus norvegicus, UniProt P09483+P12390); test: [3H]epibatidine competition binding on membranes of HEK cells transfected with rat α4β2 receptors
T2 construct: expressed in transfected cells; host or cells: HEK cells (KXα4β2R2)

[3] = competition with 0.3 nM [3H]epibatidine, KXα3β4R2 HEK cell membranes, 3 h room temperature, read-out: Binding affinities α3β4 (Ki)
[4] = competition with 0.3 nM [3H]epibatidine, KXα4β2R2 HEK cell membranes, 3 h room temperature, read-out: Binding affinities α4β2 (Ki)
[5] = read-out: Binding affinities α4β2 (Ki)
[6] = read-out: Binding affinities α3β4 (Ki)

Which Ki [1, 3] does the source give for `O=c1cccc2n1C[C@@H]1CNC[C@H]2C1` [Cytisine, reference compound] here?
The Ki was 0.203 µM.

And the Ki [2, 4]?
The Ki was 0.00153 µM.

How did the Ki [1, 3] turn out when `CN1C2CCC1CC(N1C(=O)Cc3ccccc31)C2` (stereo not shown) [SR 16583] was run?
Its Ki is 2.79 µM.

And the Ki [2]?
Its Ki is greater than 10 µM.

How did the Ki [2] turn out when `CN1C2CCCC1CC(N1C(=O)Cc3ccccc31)C2` (stereo not shown) [SR 16584] was run?
The Ki was greater than 10 µM.

For `O=C1Cc2ccccc2N1C1CC2CCCC(C1)N2` (stereo not shown) [SR 16832], which Ki [1, 3] is on record?
Its Ki is 0.421 µM.

And the Ki [2]?
Its Ki is greater than 10 µM.

Which Ki [1] does the source give for `C1=C(c2cccnc2)CC2CC1CN2Cc1ccccc1` (stereo not shown) [SR 17004] here?
Its Ki is 0.194 µM.

And the Ki [2, 5]?
Its Ki is 0.00195 µM.

For `CN1C2CCCC1CC(Nc1ccccc1)C2` (stereo not shown) [SR 17011], which Ki [1, 6] is on record?
Its Ki is 0.826 µM.

And the Ki [2, 5]?
The Ki was greater than 10 µM.

For `C1=C(c2cnc3ccccc3c2)CC2CC1N(Cc1ccccc1)C2` (stereo not shown) [SR 17015], which Ki [1, 3] is on record?
The Ki was 2.48 µM.

What about the Ki [2, 4] of the same compound?
Its Ki is 0.029 µM.

How did the Ki [1, 6] turn out when `CCOC(=O)N1C2C=C(c3cccnc3)CC1CCC2` (stereo not shown) [SR 17021] was run?
The Ki was greater than 10 µM.

And the Ki [2, 5]?
The Ki was greater than 10 µM.

How did the Ki [1, 6] turn out when `CN1C2C=C(c3cccnc3)CC1CCC2` (stereo not shown) [SR 17026] was run?
The Ki was 0.24 µM.

What about the Ki [2] of the same compound?
The Ki was 0.01 µM.

Which Ki [1, 3] does the source give for `CN1C2C=C(c3cnc4ccccc4c3)CC1CCC2` (stereo not shown) [SR 17027] here?
Its Ki is 2.61 µM.

What about the Ki [2, 4] of the same compound?
The Ki was 0.423 µM.
